# Measured values reported in PMC9204419, “A Toolbox for the Generation of Chemical Probes for Baculovirus IAP Repeat Containing Proteins” (Frontiers in Cell and Developmental Biology, 2022).
# “Also recorded” adds a separate entry of the source. Read-outs that look alike come from different tables or passages of the source.
# What was measured:
# BIRC4 = BIRC4 (Homo sapiens, UniProt P98170); test: NanoBRET cellular target engagement, full-length BIRC4
# Protocol: (§1) In brief: Constructs contained the cDNA of full-length or single domains cloned in frame with an N-terminal NanoLuc-fusion as specified in Supplementary Table S2. Plasmids were transfected into HEK293T cells using FuGENE HD (Promega, E2312) and proteins were allowed to express for 20 h. […] The corresponding transfected cells were added and reseeded at a density of 2.5^5 cells/mL after trypsinization and resuspending in Opti-MEM without phenol red (Life Technologies). […] Competitive displacement data were then graphed using GraphPad Prism 9.3 software using a normalized 3-parameter curve fit with the following equation: Y = 100/(1 + 10^(X-LogIC50)).
# BIRC7 = target: T1, BIRC7 (Homo sapiens, UniProt Q96CA5); test: NanoBRET cellular target engagement, full-length BIRC7
# T1 sequence (Q96CA5 1-298): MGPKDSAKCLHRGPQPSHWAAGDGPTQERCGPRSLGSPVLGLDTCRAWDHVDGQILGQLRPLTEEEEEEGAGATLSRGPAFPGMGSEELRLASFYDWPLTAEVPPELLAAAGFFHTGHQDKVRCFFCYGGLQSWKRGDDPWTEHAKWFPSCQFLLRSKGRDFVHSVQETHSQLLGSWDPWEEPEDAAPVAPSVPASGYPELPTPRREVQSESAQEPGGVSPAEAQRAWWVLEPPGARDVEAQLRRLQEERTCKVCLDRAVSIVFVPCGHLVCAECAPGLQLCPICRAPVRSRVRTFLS
# Protocol: as §1
# BIRC8 = target: T2, BIRC8 (Homo sapiens, UniProt Q96P09); test: NanoBRET cellular target engagement, full-length BIRC8
# T2 sequence (Q96P09 1-236): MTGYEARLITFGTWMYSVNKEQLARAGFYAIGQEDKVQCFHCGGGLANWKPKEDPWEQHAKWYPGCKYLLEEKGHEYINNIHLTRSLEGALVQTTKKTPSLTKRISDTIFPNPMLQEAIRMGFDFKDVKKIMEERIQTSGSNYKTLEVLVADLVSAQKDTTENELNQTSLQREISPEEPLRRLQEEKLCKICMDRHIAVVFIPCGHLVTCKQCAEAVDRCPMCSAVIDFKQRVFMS
# Protocol: as §1
# BIRC7 BIR = target: T3, BIRC7 BIR (Homo sapiens, UniProt Q96CA5); test: NanoBRET cellular target engagement, single domain BIRC7 BIR
# T3 sequence (Q96CA5 70-176): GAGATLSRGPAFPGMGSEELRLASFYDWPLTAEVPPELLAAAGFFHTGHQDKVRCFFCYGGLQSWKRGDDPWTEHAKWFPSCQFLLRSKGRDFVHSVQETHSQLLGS
# BIRC8 BIR = target: T4, BIRC8 BIR (Homo sapiens, UniProt Q96P09); test: NanoBRET cellular target engagement, single domain BIRC8 BIR
# T4 sequence (Q96P09 1-90): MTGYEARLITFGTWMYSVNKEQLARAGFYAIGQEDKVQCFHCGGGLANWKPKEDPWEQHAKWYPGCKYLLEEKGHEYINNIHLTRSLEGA
# Protocol: as §1
# BIRC1 BIR[2] = target: T5, BIRC1 BIR[2] (Homo sapiens, UniProt Q13075); test: NanoBRET cellular target engagement, single domain BIRC1 BIR[2]
# T5 sequence (Q13075 139-251): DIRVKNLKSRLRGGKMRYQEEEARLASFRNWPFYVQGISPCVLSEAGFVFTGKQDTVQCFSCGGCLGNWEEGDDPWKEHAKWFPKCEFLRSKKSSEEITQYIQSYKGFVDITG
# Protocol: as §1
# BIRC2-BIR3 domain [1] = target: T6, BIRC2-BIR3 domain (Homo sapiens, UniProt Q13490); test: Differential scanning fluorimetry (DSF); conditions: for Mean, ΔTm [°C] (Supplementary Table S1): mean of n=3, difference to DMSO control; for ΔTm [°C] (Supplementary Table S1): technical replicate
# T6 sequence (Q13490 260-352): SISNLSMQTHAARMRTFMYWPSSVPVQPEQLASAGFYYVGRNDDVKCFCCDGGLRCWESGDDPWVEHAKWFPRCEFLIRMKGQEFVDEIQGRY
# Protocol: Purified proteins were buffered in DSF buffer (25 mM HEPES pH 7.5, 500 mM NaCl) and were assayed in a 384-well plate (Thermo, #BC3384) with a final protein concentration of 20 μM in 10 μL final assay volume. Inhibitors were added in excess to a final concentration of 40 μM, using an ECHO 550 acoustic dispenser (Labcyte). As a fluorescent probe, SYPRO-Orange (Molecular Probes) was used at 5x final concentration. […] Data was analyzed using Boltzmann-equation in the Protein Thermal Shift software (Applied Biosystems). Samples were measured in technical triplicates.
# The assay was run in the presence of DMSO to exclude DMSO influences towards melting temperature differences when testing small molecules (Figures 2C,D).
# BIRC2 = BIRC2 (Homo sapiens, UniProt Q13490); test: NanoBRET cellular target engagement, full-length BIRC2; conditions: read-out: EC50 ± SEM NanoBRET BIRC2; full-length, HEK293T, n = 4
# Sequence of BIRC2 (Q13490 whole entry, the tested form may be a part): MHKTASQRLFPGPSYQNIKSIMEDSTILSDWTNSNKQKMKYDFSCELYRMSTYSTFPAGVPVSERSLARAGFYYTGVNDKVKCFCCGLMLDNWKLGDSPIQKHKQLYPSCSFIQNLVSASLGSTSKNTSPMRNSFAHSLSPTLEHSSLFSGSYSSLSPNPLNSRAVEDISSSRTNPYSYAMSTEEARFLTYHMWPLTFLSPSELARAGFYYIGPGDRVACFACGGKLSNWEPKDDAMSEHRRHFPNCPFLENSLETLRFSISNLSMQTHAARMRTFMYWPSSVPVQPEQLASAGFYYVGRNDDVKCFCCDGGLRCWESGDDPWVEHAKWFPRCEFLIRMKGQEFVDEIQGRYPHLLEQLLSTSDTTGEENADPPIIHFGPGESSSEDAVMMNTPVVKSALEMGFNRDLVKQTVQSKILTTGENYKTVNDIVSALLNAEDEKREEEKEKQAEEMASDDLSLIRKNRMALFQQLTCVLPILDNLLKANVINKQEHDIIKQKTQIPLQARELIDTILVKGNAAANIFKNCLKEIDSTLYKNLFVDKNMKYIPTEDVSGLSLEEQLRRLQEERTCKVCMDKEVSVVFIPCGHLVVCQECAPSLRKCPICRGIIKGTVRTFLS
# BIRC2 BIR2 = BIRC2 BIR2 (Homo sapiens, UniProt Q13490); test: NanoBRET cellular target engagement, single domain BIRC2 BIR2; conditions: read-out: EC50 ± SEM NanoBRET BIRC2 BIR2; single domain, HEK293T, n = 4
# Sequence of BIRC2 BIR2 (Q13490 165-267): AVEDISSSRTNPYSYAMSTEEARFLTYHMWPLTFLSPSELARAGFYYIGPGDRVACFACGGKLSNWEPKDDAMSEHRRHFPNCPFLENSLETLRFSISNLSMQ
# Protocol: as §1
# BIRC2 BIR3 = BIRC2 BIR3 (Homo sapiens, UniProt Q13490); test: NanoBRET cellular target engagement, single domain BIRC2 BIR3; conditions: read-out: EC50 ± SEM NanoBRET BIRC2 BIR3; single domain, HEK293T, n = 4
# Sequence of BIRC2 BIR3 (Q13490 251-372): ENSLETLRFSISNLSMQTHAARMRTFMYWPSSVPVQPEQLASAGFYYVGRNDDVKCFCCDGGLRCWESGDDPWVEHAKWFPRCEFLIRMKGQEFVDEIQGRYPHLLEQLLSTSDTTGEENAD
# BIRC2-BIR3 domain [2] = target: T6, BIRC2-BIR3 domain; test: Fluorescence polarization (FP) competition assay with fluorescent SMAC probe; type: binding; design: BIRC2-BIR3 domain (260–352) was expressed; His6 (N, cleaved yes); GST (N, cleaved yes); made in house; host or cells: E. coli; conditions: BIRC2 BIR3 domain, Cheng-Prusoff from IC50, mean ± SD, n = 3
# Protocol: Resulting data was plotted using GraphPad Prism 9.3 software and analyzed using a nonlinear fit to calculate the probe IC50. […] Compounds were titrated from 20 μM to 20 nM using an ECHO 550 acoustic dispenser (Labcyte) incubated for 1 h at room temperature and subsequent read out.
# The assay is based on the displacement of a fluorescent SMAC mimetic from the binding site.
# BIRC2-BIR3 domain [3] = target: T6, BIRC2-BIR3 domain; test: Isothermal titration calorimetry (ITC); type: binding; design: BIRC2-BIR3 domain (260–352) was expressed; His6 (N, cleaved yes); GST (N, cleaved yes); made in house; host or cells: E. coli; conditions: 25°C, duplicates, mean ± SD
# Protocol: For this protocol, the chamber was pre-equilibrated with the test compound, and the BIRC2-BIR3 domain was titrated in while continuously measuring the rate of exothermic heat evolution. The heat of binding was integrated, corrected, and fitted to an independent single-binding site model based on the manufacturer’s instructions, from which thermodynamic parameters (ΔH and TΔS), equilibrium association and dissociation constants (K A and K D, respectively), and stoichiometry (n) were calculated.
# BIRC2-BIR3 domain [4] = target: T6, BIRC2-BIR3 domain; design: BIRC2-BIR3 domain (260–352) was expressed; His6 (N, cleaved yes); GST (N, cleaved yes); made in house; host or cells: E. coli; conditions: ref Lu et al. (2008); read-out: Literature FP Assay K I Values; cited from earlier work
# BIRC3 = BIRC3 (Homo sapiens, UniProt Q13489); test: NanoBRET cellular target engagement, full-length BIRC3; conditions: read-out: EC50 ± SEM NanoBRET BIRC3; full-length, HEK293T, n = 4
# Sequence of BIRC3 (Q13489 whole entry, the tested form may be a part): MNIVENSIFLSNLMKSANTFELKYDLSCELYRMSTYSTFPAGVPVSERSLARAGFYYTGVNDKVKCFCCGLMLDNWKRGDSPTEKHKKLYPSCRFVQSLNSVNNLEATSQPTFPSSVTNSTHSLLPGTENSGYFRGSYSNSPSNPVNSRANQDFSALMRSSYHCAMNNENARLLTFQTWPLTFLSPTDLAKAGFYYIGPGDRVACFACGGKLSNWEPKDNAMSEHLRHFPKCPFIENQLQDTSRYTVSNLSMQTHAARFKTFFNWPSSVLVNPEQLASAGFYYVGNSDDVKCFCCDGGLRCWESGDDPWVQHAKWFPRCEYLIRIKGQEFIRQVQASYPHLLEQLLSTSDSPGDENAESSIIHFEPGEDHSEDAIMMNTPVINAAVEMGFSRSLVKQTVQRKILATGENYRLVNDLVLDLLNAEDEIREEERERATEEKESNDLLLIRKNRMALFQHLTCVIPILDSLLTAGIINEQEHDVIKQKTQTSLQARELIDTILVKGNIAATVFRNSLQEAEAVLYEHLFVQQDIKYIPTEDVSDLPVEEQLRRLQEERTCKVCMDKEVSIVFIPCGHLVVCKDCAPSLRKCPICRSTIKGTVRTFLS
# Protocol: as §1
# BIRC3 BIR2 = BIRC3 BIR2 (Homo sapiens, UniProt Q13489); test: NanoBRET cellular target engagement, single domain BIRC3 BIR2; conditions: read-out: EC50 ± SEM NanoBRET BIRC3 BIR2; single domain, HEK293T, n = 4
# Sequence of BIRC3 BIR2 (Q13489 147-253): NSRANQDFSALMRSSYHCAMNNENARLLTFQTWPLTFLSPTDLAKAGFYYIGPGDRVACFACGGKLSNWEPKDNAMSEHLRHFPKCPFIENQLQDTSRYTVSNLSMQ
# BIRC3 BIR3 = BIRC3 BIR3 (Homo sapiens, UniProt Q13489); test: NanoBRET cellular target engagement, single domain BIRC3 BIR3; conditions: read-out: EC50 ± SEM NanoBRET BIRC3 BIR3; single domain, HEK293T, n = 4
# Sequence of BIRC3 BIR3 (Q13489 236-360): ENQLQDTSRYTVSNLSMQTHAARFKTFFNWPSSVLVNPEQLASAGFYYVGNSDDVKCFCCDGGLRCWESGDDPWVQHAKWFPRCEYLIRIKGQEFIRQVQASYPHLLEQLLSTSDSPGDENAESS
# [5] = read-out: EC50 ± SEM NanoBRET BIRC7, full-length, HEK293T, n = 4
# [6] = read-out: EC50 ± SEM NanoBRET BIRC8, full-length, HEK293T, n = 4
# [7] = read-out: EC50 ± SEM NanoBRET BIRC7 BIR, single domain, HEK293T, n = 4
# [8] = read-out: EC50 ± SEM NanoBRET BIRC8 BIR, single domain, HEK293T, n = 4
# [9] = read-out: EC50 ± SEM NanoBRET BIRC1 BIR[2], single domain, HEK293T, n = 4
# Sequence of BIRC4 (P98170 whole entry): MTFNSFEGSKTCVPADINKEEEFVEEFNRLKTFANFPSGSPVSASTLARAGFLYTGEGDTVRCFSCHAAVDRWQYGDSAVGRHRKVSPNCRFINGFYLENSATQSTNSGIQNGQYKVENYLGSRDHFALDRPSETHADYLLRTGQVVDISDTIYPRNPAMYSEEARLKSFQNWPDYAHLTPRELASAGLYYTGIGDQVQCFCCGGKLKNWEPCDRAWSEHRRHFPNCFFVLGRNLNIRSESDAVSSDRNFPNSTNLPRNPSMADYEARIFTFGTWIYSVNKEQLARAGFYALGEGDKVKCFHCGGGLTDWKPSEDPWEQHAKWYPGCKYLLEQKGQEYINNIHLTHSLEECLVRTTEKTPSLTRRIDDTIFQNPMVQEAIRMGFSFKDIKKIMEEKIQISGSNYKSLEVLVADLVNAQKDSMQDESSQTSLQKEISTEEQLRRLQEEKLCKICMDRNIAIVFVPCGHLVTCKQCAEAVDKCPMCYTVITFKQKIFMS
EC50 (BIRC7),EC50 (BIRC8),EC50 (BIRC7 BIR),EC50 (BIRC8 BIR),EC50 (BIRC1 BIR[2]),"Mean, ΔTm [°C] (Supplementary Table S1) (BIRC2-BIR3 domain [1])",ΔTm [°C] (Supplementary Table S1) (BIRC2-BIR3 domain [1]; first column),ΔTm [°C] (Supplementary Table S1) (BIRC2-BIR3 domain [1]; second column),ΔTm [°C] (Supplementary Table S1) (BIRC2-BIR3 domain [1]; third column),EC50 (BIRC2),EC50 (BIRC7; [5]),EC50 (BIRC8; [6]),EC50 (BIRC7 BIR; [7]),EC50 (BIRC8 BIR; [8]),EC50 (BIRC2 BIR2),EC50 (BIRC2 BIR3),EC50 (BIRC1 BIR[2]; [9]),SMILES,further results
35.5 ± 9.4 nM,134 ± 8.4 nM,28.4 ± 2.7 nM,146 ± 3.8 nM,15200 ± 1230 nM,–,–,–,–,–,–,–,–,–,–,–,–,CN[C@@H](C)C(=O)N[C@H](C(=O)N1CCC[C@H]1C(=O)Nc1snnc1-c1ccccc1)C1CCCCC1 [GDC-0152],EC50 (BIRC4): 15.3 ± 5 nM
26.4 ± 5.5 nM,199 ± 21.4 nM,28.5 ± 7 nM,258 ± 42.4 nM,1490 ± 297 nM,–,–,–,–,–,–,–,–,–,–,–,–,CN[C@@H](C)C(=O)N[C@H](C(=O)N1CCC[C@H]1c1nc(C(=O)c2ccc(F)cc2)cs1)C1CCCCC1 [LCL161],–
–,–,–,–,–,13.4 °C,13.6 °C,13.4 °C,13.1 °C,5.8 ± 0.6 nM,16.5 ± 6 nM,85.7 ± 4.7 nM,50.9 ± 44.4 nM,87.3 ± 9.4 nM,6610 ± 5280 nM,0.8 ± 0.1 nM,941 ± 258 nM,CN[C@@H](C)C(=O)N[C@H]1CCCC[C@H]2CC[C@@H](C(=O)N[C@@H](c3ccccc3)c3cn(CCCCc4ccc(CCCCn5cc([C@@H](NC(=O)[C@@H]6CC[C@@H]7CCCC[C@H](NC(=O)[C@H](C)NC)C(=O)N76)c6ccccc6)nn5)cc4)nn3)N2C1=O [SM-164],"DSF Assay ΔTm (BIRC2-BIR3 domain [1]; difference in melting temperature to DMSO control, 20 μM protein, 40 μM inhibitor, mean ± SD, n = 3): 13.4 ± 0.2 °C; Ki (BIRC2-BIR3 domain [2]; read-out: FP Assay K I Values): 1.8 ± 0.7 nM; Kd (BIRC2-BIR3 domain [3]; read-out: K D Measured in ITC): 41.6 ± 3.4 nM; Ki (BIRC2-BIR3 domain [4]): 0.3 ± 0.1 nM"
–,–,–,–,–,0.3 °C,0.4 °C,0.3 °C,0.2 °C,> 50000 nM,> 50000 nM,> 50000 nM,> 50000 nM,> 50000 nM,> 50000 nM,> 50000 nM,> 50000 nM,Oc1c(CN2CCCC2)cc(COCc2ccccc2)c2cccnc12 [UC-112],"EC50 (BIRC3): > 50000 nM; EC50 (BIRC4; read-out: EC50 ± SEM NanoBRET BIRC4, full-length, HEK293T, n = 4): > 50000 nM; EC50 (BIRC3 BIR2): > 50000 nM; EC50 (BIRC3 BIR3): > 50000 nM; FP Assay K I Values (BIRC2-BIR3 domain [2]): binding could not be shown; also recorded: no interaction at all; K D Measured in ITC (BIRC2-BIR3 domain [3]): no binding"
